Paper doi:10.1101/215335v1 (biorxiv, 2017)

Biological target: T1, TaALMT1 (Triticum aestivum, UniProt Q76LB1)
T1 sequence (Q76LB1 1-459): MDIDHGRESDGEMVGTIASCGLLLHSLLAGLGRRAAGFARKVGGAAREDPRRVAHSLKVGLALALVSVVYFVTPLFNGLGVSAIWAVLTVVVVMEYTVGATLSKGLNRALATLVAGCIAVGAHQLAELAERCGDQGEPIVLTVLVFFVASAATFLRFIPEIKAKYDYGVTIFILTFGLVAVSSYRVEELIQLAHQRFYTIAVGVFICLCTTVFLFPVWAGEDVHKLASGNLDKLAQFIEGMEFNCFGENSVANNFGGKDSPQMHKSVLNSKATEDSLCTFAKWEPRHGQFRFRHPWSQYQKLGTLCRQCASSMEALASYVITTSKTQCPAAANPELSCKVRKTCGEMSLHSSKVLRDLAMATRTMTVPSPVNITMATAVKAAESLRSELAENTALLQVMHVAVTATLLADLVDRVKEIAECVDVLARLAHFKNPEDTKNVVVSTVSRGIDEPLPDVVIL
Experiment: TEVC in Xenopus oocytes, malate-activated inward current
Type: cell-based
Settings: read-out: % inhibition at 100 μM

## C=CC(N)CCC(=O)O (stereo not shown) [vigabatrin]
  inhibition at 100 µM: 100%
